Assay results taken from PubChem BioAssay (NCI).
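Protocol summary: plate cells (96-well), add compound at 5 concentrations, incubate 48 h, interpolate endpoints linearly. GI50 = concentration required for 50% inhibition of growth. TGI: total growth inhibition.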

Tests used:
Test in all cases: DTP human tumour cell line panel, 48 h
COLO 205 colon = test system: COLO 205 colon
KM12 colon = test system: KM12 colon
CAKI-1 renal = test system: CAKI-1 renal
ACHN renal = test system: ACHN renal
MDA-MB-231 breast = test system: MDA-MB-231 breast
NCI-H460 lung = test system: NCI-H460 lung
RPMI-8226 leukemia = test system: RPMI-8226 leukemia
PC-3 prostate = test system: PC-3 prostate
CCRF-CEM leukemia = test system: CCRF-CEM leukemia
MOLT-4 leukemia = test system: MOLT-4 leukemia

Row | SMILES | TGI (COLO 205 colon) [µM] | TGI (KM12 colon) [µM] | TGI (CAKI-1 renal) [µM] | TGI (ACHN renal) [µM] | TGI (MDA-MB-231 breast) [µM] | TGI (NCI-H460 lung) [µM] | TGI (RPMI-8226 leukemia) [µM] | TGI (PC-3 prostate) [µM] | TGI (CCRF-CEM leukemia) [µM] | TGI (MOLT-4 leukemia) [µM] | GI50 (COLO 205 colon) [µM] | GI50 (KM12 colon) [µM] | GI50 (ACHN renal) [µM] | GI50 (CCRF-CEM leukemia) [µM] | GI50 (NCI-H460 lung) [µM] | GI50 (MOLT-4 leukemia) [µM] | GI50 (RPMI-8226 leukemia) [µM] | GI50 (CAKI-1 renal) [µM] | GI50 (MDA-MB-231 breast) [µM] | GI50 (PC-3 prostate) [µM]
1 | O=c1c2ccc(S(=O)(=O)c3ccc4c(=O)n5c6ccccc6nc5c5cccc3c45)c3cccc(c32)c2nc3ccccc3n12 | > 100 | > 100 | > 100 | 30.2 | 59.9 | > 100 | > 100 | > 100 | – | – | – | – | – | – | – | – | – | – | – | –
2 | COC(OC)c1cc2c(cc1C=O)OCO2 | – | > 100 | > 100 | > 100 | – | > 100 | – | – | > 100 | > 100 | – | – | – | – | – | – | – | – | – | –
3 | N.N.N.N.N.NC(=O)[O-].[Co+3].[I-] | > 100 | > 100 | – | > 100 | – | > 100 | > 100 | – | > 100 | > 100 | > 100 | > 100 | > 100 | > 100 | > 100 | > 100 | > 100 | – | – | –
4 | Cc1cccc(-n2c(N)c(-c3nc4ccccc4[nH]3)sc2=S)c1 | 51.8 | 52.2 | 90.5 | 99 | – | – | 57.4 | – | > 100 | 54.6 | – | – | – | – | – | – | – | – | – | –
5 | CC(CC(=O)N1C(=O)C(C)(C)[C@@H](O)[C@H]1CC(C)C(Cl)(Cl)Cl)C(Cl)(Cl)Cl (stereo not given in full) | > 100 | > 100 | > 100 | > 100 | – | > 100 | > 100 | – | > 100 | > 100 | – | – | – | – | – | – | – | – | – | –
6 | CCC[CH2][Sn]([CH2]CCC)([O]c1cccc2cccnc12)[O]c1cccc2cccnc12 | 1.7 | – | 0.718 | 0.853 | – | 1.17 | – | – | 0.313 | 0.377 | 0.482 | – | 0.458 | 0.0317 | 0.382 | 0.159 | – | 0.2 | – | –
7 | O=C(Nc1ccc(Cc2ccccc2)cc1)Nc1nn(C(=O)Nc2ccc(Cc3ccccc3)cc2)c2ccccc12 | > 100 | > 100 | > 100 | > 100 | > 100 | > 100 | > 100 | > 100 | – | > 100 | > 100 | > 100 | > 100 | – | > 100 | 63.2 | > 100 | > 100 | 47.1 | > 100
8 | CCCc1n(Cc2ccc3ccccc3c2)cc[n+]1Cc1ccc2ccccc2c1 | 1.72 | 2.38 | – | 14.2 | 2.54 | 3.01 | 1.67 | 3.49 | 4.93 | 4.07 | 0.458 | 1.01 | 3.87 | 1.48 | 1.22 | 1.46 | 0.399 | – | 1.06 | 1.17
9 | CC(C)N(O)C(=N)c1ccccc1 | – | > 100 | > 100 | – | – | > 100 | – | – | – | – | – | – | – | – | – | – | – | – | – | –
10 | CC1CCN(Cc2ccc(NC(=O)c3cc4ccc5cccnc5c4[nH]3)cc2)CC1 | – | 35.8 | 31 | 23.1 | 23.2 | 28.1 | 6.99 | 23.7 | – | 9.85 | – | 5.31 | 5.47 | – | 4.16 | 3 | 2.58 | 6.58 | 5.59 | 5.1
